Results on 32 compounds are retold here after US9822058B2 (CHDI FOUNDATION, INC., priority 2012, dated 2017).

For orientation: inhibition means the change of the read-out against control, counted positive when it falls. One may read the % Inhibition as the drop in the measured response relative to a control, in per cent.

The target in one assay is T1, KMO mouse enzyme (Mus musculus, UniProt Q91WN4).
T1 construct: KMO enzyme prepared at Evotec from mouse liver (4-6 weeks old) via mitochondria isolation; from tissue; host or cells: mouse liver (4-6 weeks old), isolated mitochondria, prepared at Evotec
T1 sequence (Q91WN4 whole entry): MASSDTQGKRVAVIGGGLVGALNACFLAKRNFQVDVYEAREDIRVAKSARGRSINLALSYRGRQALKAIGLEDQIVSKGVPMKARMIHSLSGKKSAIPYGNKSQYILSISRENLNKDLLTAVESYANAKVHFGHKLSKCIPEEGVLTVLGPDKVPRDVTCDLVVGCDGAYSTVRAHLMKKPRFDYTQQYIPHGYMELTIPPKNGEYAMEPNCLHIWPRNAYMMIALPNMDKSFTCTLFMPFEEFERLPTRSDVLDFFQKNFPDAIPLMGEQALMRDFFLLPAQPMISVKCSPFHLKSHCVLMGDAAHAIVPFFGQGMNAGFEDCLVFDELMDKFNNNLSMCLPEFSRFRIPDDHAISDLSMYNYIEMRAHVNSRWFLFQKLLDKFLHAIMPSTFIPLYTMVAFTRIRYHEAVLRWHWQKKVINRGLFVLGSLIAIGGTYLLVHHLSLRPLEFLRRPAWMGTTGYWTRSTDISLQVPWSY
Briefly: KMO mouse enzyme assay: L-Kynurenine hydroxylation to 3-Hydroxy-Kynurenine by LC/MS (protocols substantially similar to Example 33). Particulars: compound at 30 µM; KMO enzyme from mouse liver mitochondria; 100 μM L-Kynurenine; 40 min at RT. It counts as biochemical. Here is the method: A method of monitoring L-Kynurenine (KYN) hydroxylation to form 3-Hydroxy-Kynurenine (3OH-KYN) by LC/MS is described. Product is quantified by multiple reaction monitoring (MRM method). […]
Using the assay protocols substantially similar to those of Example 33, the following compounds were tested.
In the case of `C[C@H]1[C@@H](C(=O)O)[C@@H]1C(=O)c1ccc(Cl)c(Cl)c1` (single isomer, unassigned), the inhibition at 30 µM turned out to be 101%.

As to `C[C@@H]1[C@@H](C(=O)O)[C@@H]1C(=O)c1ccc(Cl)c(Cl)c1` (single isomer, unassigned), the inhibition at 30 µM was found to be 96.7%.

Regarding `C[C@H]1[C@H](C(=O)O)[C@H]1C(=O)c1ccc(Cl)c(Cl)c1` (single isomer, unassigned), the inhibition at 30 µM was found to be 101%.

Turning to `C[C@@H]1[C@H](C(=O)O)[C@H]1C(=O)c1ccc(Cl)c(Cl)c1` (single isomer, unassigned), the inhibition at 30 µM worked out at 52.5%.

As for `O=C(c1ccc(Cl)c(Cl)c1)C1CC12CCOC2=O` (stereo not drawn) [1-[(3,4-dichlorophenyl)carbonyl]-5-oxaspiro[2.4]heptan-4-one], the inhibition at 30 µM worked out at 38%.

For the compound `CCOC(=O)OC(C)OC(=O)[C@H]1C[C@@H]1C(=O)c1ccc(Cl)c(Cl)c1` (stereo partly drawn) [1-[(Ethoxycarbonyl)oxy]ethyl (1S,2S)-2-[(3,4-dichlorophenyl)carbonyl]cyclopropane-1-carboxylate], the inhibition at 30 µM stood at 102%.

In the case of `CC(=O)OC(C)OC(=O)[C@H]1C[C@@H]1C(=O)c1ccc(Cl)c(Cl)c1` (stereo partly drawn) [1-{[(1S,2S)-2-[(3,4-Dichlorophenyl)carbonyl]cyclopropyl]carbonyloxy}ethyl acetate], the inhibition at 30 µM is 103%.

As to `CC(OC(=O)[C@H]1C[C@@H]1C(=O)c1ccc(Cl)c(Cl)c1)OC(=O)[C@H]1C[C@@H]1C(=O)c1ccc(Cl)c(Cl)c1` [1-{[(1S,2S)-2-[(3,4-dichlorophenyl)carbonyl]cyclopropyl]carbonyloxy}ethyl (1S,2S)-2-[(3,4-dichlorophenyl)carbonyl]cyclopropane-1-carboxylate], the inhibition at 30 µM was found to be 98%.

With `CC(C)OC(=O)OC(C)OC(=O)[C@H]1C[C@@H]1C(=O)c1ccc(Cl)c(Cl)c1` (stereo partly drawn) [1-{[(Propan-2-yloxy)carbonyl]oxy}ethyl (1S,2S)-2-[(3,4-dichlorophenyl)carbonyl]cyclopropane-1-carboxylate], the inhibition at 30 µM was 103%.

With `CCN(CC)CCOC(=O)[C@H]1C[C@@H]1C(=O)c1ccc(Cl)c(Cl)c1` [2-(Diethylamino)ethyl (1S,2S)-2-[(3,4-dichlorophenyl)carbonyl]cyclopropane-1-carboxylate], the inhibition at 30 µM stood at 102%.

In the case of `O=C(OCCO)[C@H]1C[C@@H]1C(=O)c1ccc(Cl)c(Cl)c1` [2-Hydroxyethyl (1S,2S)-2-[(3,4-dichlorophenyl)carbonyl]cyclopropane-1-carboxylate], the inhibition at 30 µM amounted to 102%.

Consider `CC(C)COC(=O)[C@H]1C[C@@H]1C(=O)c1ccc(Cl)c(Cl)c1` [2-Methylpropyl (1S,2S)-2-[(3,4-dichlorophenyl)carbonyl]cyclopropane-1-carboxylate], for which the inhibition at 30 µM was 101%.

In the case of `O=C(c1ccc(Cl)c(Cl)c1)[C@H]1C[C@@H]1c1noc(=O)[nH]1` [3-[(1S,2S)-2-[(3,4-Dichlorophenyl)carbonyl]cyclopropyl]-4,5-dihydro-1,2,4-oxadiazol-5-one], the inhibition at 30 µM stood at 101%.

In the case of `O=C(c1ccc(F)c(Cl)c1)[C@H]1C[C@@H]1c1noc(=O)[nH]1` [3-[(1S,2S)-2-[(3-Chloro-4-fluorophenyl)carbonyl]cyclopropyl]-4,5-dihydro-1,2,4-oxadiazol-5-one], the inhibition at 30 µM is 101%.

Turning to `CC(C)(C)c1ccc(OC(=O)[C@H]2C[C@@H]2C(=O)c2ccc(Cl)c(Cl)c2)cc1` [4-tert-Butylphenyl (1S,2S)-2-[(3,4-dichlorophenyl)carbonyl]cyclopropane-1-carboxylate], the inhibition at 30 µM turned out to be 101%.

As to `O=C1CN(C(=O)[C@H]2C[C@@H]2C(=O)c2ccc(Cl)c(Cl)c2)CCN1` [4-{[(1S,2S)-2-[(3,4-Dichlorophenyl)carbonyl]cyclopropyl]carbonyl}piperazin-2-one], the inhibition at 30 µM was 33%.

For the compound `O=C(c1ccc(Cl)c(Cl)c1)[C@H]1C[C@@H]1c1nnn[nH]1` [5-[(1S,2S)-2-[(3,4-Dichlorophenyl)carbonyl]cyclopropyl]-1H-1,2,3,4-tetrazole], the inhibition at 30 µM came out at 101%.

For `CC1(C)[C@H](C(=O)O)[C@H]1C(=O)c1ccc(Cl)c(Cl)c1` [(1R,3R)-3-(3,4-dichlorobenzoyl)-2,2-dimethylcyclopropane-1-carboxylic acid], the inhibition at 30 µM worked out at 54%.

Consider `O=C(c1ccc(F)c(Cl)c1)C1C[C@@H]1C(=O)O` (stereo partly drawn) [(1S)-2-[(3-Chloro-4-fluorophenyl)carbonyl]cyclopropane-1-carboxylic acid], for which the inhibition at 30 µM turned out to be 68%.

As for `C[C@]1(C(=O)O)C[C@@H]1C(=O)c1ccc(Cl)c(Cl)c1` [(1S,2S)-2-(3,4-dichlorobenzoyl)-1-methylcyclopropane-1-carboxylic acid], the inhibition at 30 µM was determined as 98.6%.

With `O=C(Nc1ccccc1)[C@H]1C[C@@H]1C(=O)c1ccc(Cl)c(Cl)c1` [(1S,2S)-2-[(3,4-Dichlorophenyl)carbonyl]-N-phenylcyclopropane-1-carboxamide], the inhibition at 30 µM was 86%.

`N#C[C@H]1C[C@@H]1C(=O)c1ccc(Cl)c(Cl)c1` [(1S,2S)-2-[(3,4-Dichlorophenyl)carbonyl]cyclopropane-1-carbonitrile]: the inhibition at 30 µM was found to be 68%.

Consider `O=C(O)[C@H]1C[C@@H]1C(=O)c1ccc(Cl)c(Cl)c1` [(1S,2S)-2-[(3,4-Dichlorophenyl)carbonyl]cyclopropane-1-carboxylic acid], for which the inhibition at 30 µM turned out to be 106%.

In the case of `O=C(O)[C@H]1C[C@@H]1C(=O)c1ccc(F)c(F)c1` [(1S,2S)-2-[(3,4-Difluorophenyl)carbonyl]cyclopropane-1-carboxylic acid], the inhibition at 30 µM was determined as 88%.

Turning to `O=C(NCCO)[C@H]1C[C@@H]1C(=O)c1ccc(Cl)c(Cl)c1` [(1S,2S)-2-[(3,4-dichlorophenyl)carbonyl]-N-(2-hydroxyethyl)cyclopropane-1-carboxamide], the inhibition at 30 µM is 94%.

On to `O=C(O)[C@H]1C[C@@H]1C(=O)c1cc(Cl)cc(Cl)c1` [(1S,2S)-2-[(3,5-Dichlorophenyl)carbonyl]cyclopropane-1-carboxylic acid], for which the inhibition at 30 µM was determined as 103%.

In the case of `O=C(O)[C@H]1C[C@@H]1C(=O)c1ccc(OC2CC2)c(Cl)c1` [(1S,2S)-2-[(3-Chloro-4-cyclopropoxyphenyl)carbonyl]cyclopropane-1-carboxylic acid], the inhibition at 30 µM amounted to 101%.

Regarding `Cc1ccc(C(=O)[C@H]2C[C@@H]2C(=O)O)cc1Cl` [(1S,2S)-2-[(3-Chloro-4-methylphenyl)carbonyl]cyclopropane-1-carboxylic acid], the inhibition at 30 µM is 100%.

Consider `O=C(O)[C@H]1C[C@@H]1C(=O)c1cccc(Cl)c1` [(1S,2S)-2-[(3-Chlorophenyl)carbonyl]cyclopropane-1-carboxylic acid], for which the inhibition at 30 µM amounted to 105%.

As to `NC(=O)[C@H]1C[C@@H]1C(=O)c1ccc(OC2CC2)c(Cl)c1` [(1S,2S)-2-[(3-chloro-4-cyclopropoxyphenyl)carbonyl]cyclopropane-1-carboxamide], the inhibition at 30 µM was 42%.

For the compound `O=C(O)[C@H]1C[C@@H]1C(=O)c1ccc(Cl)c(F)c1` [(1S,2S)-2-[(4-Chloro-3-fluorophenyl)carbonyl]cyclopropane-1-carboxylic acid], the inhibition at 30 µM was 103%.

Consider `CC(C)Oc1ccc(C(=O)[C@H]2C[C@@H]2C(=O)O)cc1Cl` [(1S,2S)-2-{[3-Chloro-4-(propan-2-yloxy)phenyl]carbonyl}cyclopropane-1-carboxylic acid], for which the inhibition at 30 µM worked out at 98%.

Still in this assay, the particulars now being: compound at 30 µM; KMO enzyme from mouse liver mitochondria; 100 μM L-Kynurenine; 40 min at RT; listed as 1S,2S)-2-(3-chloro-4-cyclopropoxybenzoyl)cyclopropane-1-carboxylic acid.
As to `O=C(O)[C@H]1C[C@@H]1C(=O)c1ccc(OC2CC2)c(Cl)c1` [(1S,2S)-2-[(3-Chloro-4-cyclopropoxyphenyl)carbonyl]cyclopropane-1-carboxylic acid], the “% Inhibition at 30 µM” value stood at 100.5%.
